Results taken from ChEMBL document CHEMBL1201862, “PubChem BioAssay data set” (2004).
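Tested at 5 concentrations; 48 h exposure; 96-well plates; endpoints linearly interpolated, else capped at highest concentration. Here, GI50 denotes the concentration required for 50% inhibition of growth.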 The source made the active and inactive calls. Rule as the data show it: active = GI50 up to about 1.1 µM and inactive = higher.

Key:
Test in all cases: NCI-60 cell line screen, 48 h
HCT-15 = tested on: HCT-15
NCI-H460 = tested on: NCI-H460
T47D = tested on: T47D
SW-620 = tested on: SW-620
DU-145 = tested on: DU-145
MDA-N = tested on: MDA-N
MDA-MB-231 = tested on: MDA-MB-231
OVCAR-8 = tested on: OVCAR-8
SF-295 = tested on: SF-295
K562 = tested on: K562
A498 = tested on: A498
HOP-92 = tested on: HOP-92
MDA-MB-435 = tested on: MDA-MB-435
PC-3 = tested on: PC-3
UO-31 = tested on: UO-31
SNB-19 = tested on: SNB-19
U-251 = tested on: U-251
Malme-3M = tested on: Malme-3M
786-0 = tested on: 786-0
Hs-578T = tested on: Hs-578T
UACC-62 = tested on: UACC-62
OVCAR-4 = tested on: OVCAR-4
EKVX = tested on: EKVX
TK-10 = tested on: TK-10
M14 = tested on: M14
SF-268 = tested on: SF-268
NCI-H522 = tested on: NCI-H522
BT-549 = tested on: BT-549
IGROV-1 = tested on: IGROV-1
HCT-116 = tested on: HCT-116
SK-MEL-28 = tested on: SK-MEL-28
KM12 = tested on: KM12
SK-MEL-5 = tested on: SK-MEL-5
LOX IMVI = tested on: LOX IMVI
CCRF-CEM = tested on: CCRF-CEM
OVCAR-5 = tested on: OVCAR-5
NCI/ADR-RES = tested on: NCI/ADR-RES
NCI-H226 = tested on: NCI-H226
HCC 2998 = tested on: HCC 2998
ACHN = tested on: ACHN
MOLT-4 = tested on: MOLT-4
SR = tested on: SR
UACC-257 = tested on: UACC-257
HOP-62 = tested on: HOP-62
HT-29 = tested on: HT-29
SNB-75 = tested on: SNB-75
OVCAR-3 = tested on: OVCAR-3
NCI-H23 = tested on: NCI-H23
SN12C = tested on: SN12C
RXF 393 = tested on: RXF 393
CAKI-1 = tested on: CAKI-1
A549 = tested on: A549
SK-OV-3 = tested on: SK-OV-3
RPMI-8226 = tested on: RPMI-8226
COLO 205 = tested on: COLO 205
SK-MEL-2 = tested on: SK-MEL-2
SF-539 = tested on: SF-539
MCF7 = tested on: MCF7
HL-60 = tested on: HL-60

Compound: Oc1cc(CF)nc(S)n1
- GI50 (HCT-15): > 100 µM
- GI50 (NCI-H460): > 100 µM (inactive)
- GI50 (T47D): > 100 µM (inactive)
- GI50 (SW-620): > 100 µM (inactive)
- GI50 (DU-145): > 100 µM (inactive)
- GI50 (MDA-N): > 100 µM (inactive)
- GI50 (MDA-MB-231): > 100 µM (inactive)
- GI50 (OVCAR-8): > 100 µM (inactive)
- GI50 (SF-295): > 100 µM (inactive)
- GI50 (K562): > 100 µM (inactive)
- GI50 (A498): > 100 µM (inactive)
- GI50 (HOP-92): > 100 µM (inactive)
- GI50 (MDA-MB-435): > 100 µM (inactive)
- GI50 (PC-3): > 100 µM (inactive)
- GI50 (UO-31): > 100 µM (inactive)
- GI50 (SNB-19): > 100 µM (inactive)
- GI50 (U-251): > 100 µM (inactive)
- GI50 (Malme-3M): > 100 µM (inactive)
- GI50 (786-0): > 100 µM (inactive)
- GI50 (Hs-578T): > 100 µM (inactive)
- GI50 (UACC-62): > 100 µM (inactive)
- GI50 (OVCAR-4): > 100 µM (inactive)
- GI50 (EKVX): > 100 µM (inactive)
- GI50 (TK-10): > 100 µM (inactive)
- GI50 (M14): > 100 µM (inactive)
- GI50 (SF-268): > 100 µM (inactive)
- GI50 (NCI-H522): > 100 µM (inactive)
- GI50 (BT-549): > 100 µM (inactive)
- GI50 (IGROV-1): > 100 µM (inactive)
- GI50 (HCT-116): > 100 µM (inactive)
- GI50 (SK-MEL-28): > 100 µM (inactive)
- GI50 (KM12): > 100 µM (inactive)
- GI50 (SK-MEL-5): > 100 µM (inactive)
- GI50 (LOX IMVI): > 100 µM (inactive)
- GI50 (CCRF-CEM): > 100 µM (inactive)
- GI50 (OVCAR-5): > 100 µM (inactive)
- GI50 (NCI/ADR-RES): > 100 µM (inactive)
- GI50 (NCI-H226): > 100 µM (inactive)
- GI50 (HCC 2998): > 100 µM (inactive)
- GI50 (ACHN): > 100 µM (inactive)
- GI50 (MOLT-4): > 100 µM (inactive)
- GI50 (SR): > 100 µM (inactive)
- GI50 (UACC-257): > 100 µM (inactive)
- GI50 (HOP-62): > 100 µM (inactive)
- GI50 (HT-29): > 100 µM (inactive)
- GI50 (SNB-75): > 100 µM (inactive)
- GI50 (OVCAR-3): > 100 µM (inactive)
- GI50 (NCI-H23): > 100 µM (inactive)
- GI50 (SN12C): > 100 µM (inactive)
- GI50 (RXF 393): > 100 µM (inactive)
- GI50 (CAKI-1): > 100 µM (inactive)
- GI50 (A549): > 100 µM (inactive)

Compound: CCOC(=O)C(C(=O)COC(C)(C)C)[C@@H]1C=C[C@H](OC(C)=O)C1 (some centres undefined)
- GI50 (SK-OV-3): > 100 µM (inactive)
- GI50 (HCT-15): > 100 µM
- GI50 (NCI-H460): > 100 µM (inactive)
- GI50 (RPMI-8226): > 100 µM (inactive)
- GI50 (COLO 205): > 100 µM (inactive)
- GI50 (SK-MEL-2): > 100 µM (inactive)
- GI50 (T47D): > 100 µM (inactive)
- GI50 (SW-620): > 100 µM (inactive)
- GI50 (MDA-N): > 100 µM (inactive)
- GI50 (MDA-MB-231): > 100 µM (inactive)
- GI50 (SF-295): > 100 µM (inactive)
- GI50 (K562): > 100 µM (inactive)
- GI50 (A498): > 100 µM (inactive)
- GI50 (MDA-MB-435): > 100 µM (inactive)
- GI50 (PC-3): > 100 µM (inactive)
- GI50 (UO-31): > 100 µM (inactive)
- GI50 (SNB-19): > 100 µM (inactive)
- GI50 (SF-539): > 100 µM (inactive)
- GI50 (U-251): > 100 µM (inactive)
- GI50 (Malme-3M): > 100 µM (inactive)
- GI50 (786-0): > 100 µM (inactive)
- GI50 (Hs-578T): > 100 µM (inactive)
- GI50 (UACC-62): > 100 µM (inactive)
- GI50 (OVCAR-4): > 100 µM (inactive)
- GI50 (EKVX): > 100 µM (inactive)
- GI50 (M14): > 100 µM (inactive)
- GI50 (SF-268): > 100 µM (inactive)
- GI50 (BT-549): > 100 µM (inactive)
- GI50 (HCT-116): > 100 µM (inactive)
- GI50 (SK-MEL-28): > 100 µM (inactive)
- GI50 (KM12): > 100 µM (inactive)
- GI50 (CCRF-CEM): 73.8 µM (inactive)
- GI50 (OVCAR-5): > 100 µM (inactive)
- GI50 (NCI/ADR-RES): > 100 µM (inactive)
- GI50 (NCI-H226): > 100 µM (inactive)
- GI50 (HCC 2998): > 100 µM (inactive)
- GI50 (ACHN): > 100 µM (inactive)
- GI50 (MOLT-4): 65.2 µM (inactive)
- GI50 (UACC-257): > 100 µM (inactive)
- GI50 (HOP-62): > 100 µM (inactive)
- GI50 (HT-29): > 100 µM (inactive)
- GI50 (SNB-75): > 100 µM (inactive)
- GI50 (OVCAR-3): > 100 µM (inactive)
- GI50 (NCI-H23): > 100 µM (inactive)
- GI50 (SN12C): > 100 µM (inactive)
- GI50 (CAKI-1): > 100 µM (inactive)
- GI50 (A549): > 100 µM (inactive)
- GI50 (MCF7): > 100 µM (inactive)

Compound: Cc1ccc2[nH]c3[nH]c(=S)[nH]c(=O)c3c2c1
- GI50 (SK-OV-3): > 100 µM (inactive)
- GI50 (HCT-15): > 100 µM
- GI50 (RPMI-8226): 72.8 µM (inactive)
- GI50 (COLO 205): > 100 µM (inactive)
- GI50 (SK-MEL-2): > 100 µM (inactive)
- GI50 (T47D): > 100 µM (inactive)
- GI50 (SW-620): > 100 µM (inactive)
- GI50 (DU-145): > 100 µM (inactive)
- GI50 (MDA-N): > 100 µM (inactive)
- GI50 (MDA-MB-231): > 100 µM (inactive)
- GI50 (OVCAR-8): > 100 µM (inactive)
- GI50 (SF-295): > 100 µM (inactive)
- GI50 (K562): 96.4 µM (inactive)
- GI50 (A498): > 100 µM (inactive)
- GI50 (HOP-92): > 100 µM (inactive)
- GI50 (MDA-MB-435): > 100 µM (inactive)
- GI50 (UO-31): > 100 µM (inactive)
- GI50 (SNB-19): > 100 µM (inactive)
- GI50 (SF-539): > 100 µM (inactive)
- GI50 (Malme-3M): > 100 µM (inactive)
- GI50 (786-0): > 100 µM (inactive)
- GI50 (Hs-578T): > 100 µM (inactive)
- GI50 (UACC-62): > 100 µM (inactive)
- GI50 (EKVX): > 100 µM (inactive)
- GI50 (TK-10): > 100 µM (inactive)
- GI50 (M14): > 100 µM (inactive)
- GI50 (SF-268): > 100 µM (inactive)
- GI50 (NCI-H522): > 100 µM (inactive)
- GI50 (BT-549): > 100 µM (inactive)
- GI50 (IGROV-1): > 100 µM (inactive)
- GI50 (HCT-116): > 100 µM (inactive)
- GI50 (KM12): > 100 µM (inactive)
- GI50 (SK-MEL-5): > 100 µM (inactive)
- GI50 (LOX IMVI): > 100 µM (inactive)
- GI50 (CCRF-CEM): > 100 µM (inactive)
- GI50 (HL-60): > 100 µM (inactive)
- GI50 (OVCAR-5): > 100 µM (inactive)
- GI50 (NCI/ADR-RES): > 100 µM (inactive)
- GI50 (NCI-H226): > 100 µM (inactive)
- GI50 (HCC 2998): > 100 µM (inactive)
- GI50 (ACHN): > 100 µM (inactive)
- GI50 (MOLT-4): 97.5 µM (inactive)
- GI50 (SR): > 100 µM (inactive)
- GI50 (UACC-257): > 100 µM (inactive)
- GI50 (HOP-62): > 100 µM (inactive)
- GI50 (HT-29): > 100 µM (inactive)
- GI50 (SNB-75): 40 µM (inactive)
- GI50 (OVCAR-3): 72.9 µM (inactive)
- GI50 (NCI-H23): > 100 µM (inactive)
- GI50 (SN12C): > 100 µM (inactive)
- GI50 (RXF 393): > 100 µM (inactive)
- GI50 (CAKI-1): > 100 µM (inactive)
- GI50 (A549): > 100 µM (inactive)
- GI50 (MCF7): > 100 µM (inactive)
